Data: patent US11377425B1, “Small molecule modulators of IL-17” (LEO Pharma A/S, priority 2018, dated 2022)

Target: T1, human IL-17AA (Homo sapiens, UniProt Q16552)
T1 construct: host or cells: HEK (human embryonic kidney) cells
T1 sequence (Q16552 24-155): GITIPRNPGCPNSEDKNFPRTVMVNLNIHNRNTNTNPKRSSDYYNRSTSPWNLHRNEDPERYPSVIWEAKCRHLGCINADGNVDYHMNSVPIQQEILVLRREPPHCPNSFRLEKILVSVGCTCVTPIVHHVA
Experiment: IL-8 release assay in human epithelial keratinocytes adult (HEKa)
Type: cell-based
Conditions: HEKa cells, 3 ng/mL HEK-human IL-17AA + 10 ng/mL human TNFalpha; read-out: Rel EC50 IL-8 release assay
In short: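 IL-8 release, quantified by HTRF and normalized to controls, reports IL-17 signaling in HEKa cells treated with compound plus final 3 ng/mL IL-17AA (HEK-derived) and 10 ng/mL TNF-alpha for 68-72 h; TNF-alpha-only wells set 100% inhibition. Four-parameter logistic fits (r^2>0.9) give relative IC50 and Emax; PrestoBlue flags cytotoxicity.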

Row | EC50 | SMILES
1 | < 100 nM | Cc1n[nH]c(CO)c1-c1ccc(NC(=O)[C@@H](NC(=O)c2ccnn2C(C)C)C(C2CC2)C2CC2)cc1 [Example 432, N-[(1S)-1-(Dicyclopropylmethyl)-2-[4-[5-(hydroxymethyl)-3-methyl-1H-pyrazol-4-yl]anilino]-2-oxo-ethyl]-2-isopropyl-pyrazole-3-carboxamide]
2 | > 1000 nM | Cc1n[nH]c(C(C)O)c1-c1ccc(NC(=O)[C@@H](NC(=O)OC(C)(C)C)C2CCCCC2)cc1 (stereo partly drawn) [Example 433, Tert-butyl N-[(1S)-1-cyclohexyl-2-[4-[5-(1-hydroxyethyl)-3-methyl-1H-pyrazol-4-yl]anilino]-2-oxo-ethyl]carbamate]
3 | > 1000 nM | Cc1[nH]nc(C(C)(C)O)c1-c1ccc(NC(=O)[C@@H](NC(=O)OC(C)(C)C)C2CCCCC2)cc1 [Example 436, tert-butyl N-[(1S)-1-cyclohexyl-2-[4-[5-(1-hydroxy-1-methyl-ethyl)-3-methyl-1H-pyrazol-4-yl]anilino]-2-oxo-ethyl]carbamate]
4 | 100 to 1000 nM | Cc1[nH]nc(CO)c1-c1ccc(NC(=O)[C@@H](NC(=O)OC(C)(C)C)C2CCCCCC2)cc1 [Example 439, tert-butyl N-[(1S)-1-cycloheptyl-2-[4-[5-(hydroxymethyl)-3-methyl-1H-pyrazol-4-yl]anilino]-2-oxo-ethyl]carbamate]
5 | 100 to 1000 nM | Cc1n[nH]c(C(C)O)c1-c1ccc(NC(=O)[C@@H](NC(=O)c2ccnn2C)C2CCCCC2)cc1 (stereo partly drawn) [Example 440, N-[(1S)-1-Cyclohexyl-2-[4-[5-(1-hydroxyethyl)-3-methyl-1H-pyrazol-4-yl]anilino]-2-oxo-ethyl]-2-methyl-pyrazole-3-carboxamide]
6 | 100 to 1000 nM | Cc1n[nH]c(C(C)O)c1-c1ccc(NC(=O)[C@@H](NC(=O)C2(F)CC2)C(c2ccccc2)c2ccccc2)cc1 (stereo partly drawn) [Example 442, N-[(1S)-1-benzhydryl-2-[4-[5-(1-hydroxyethyl)-3-methyl-1H-pyrazol-4-yl]anilino]-2-oxo-ethyl]-1-fluoro-cyclopropanecarboxamide]
7 | < 100 nM | Cc1n[nH]c(CO)c1-c1ccc(NC(=O)[C@@H](NC(=O)c2ccnn2C)C2CCCCCC2)cc1 [Example 446, N-[(1S)-1-cycloheptyl-2-[4-[5-(hydroxymethyl)-3-methyl-1H-pyrazol-4-yl]anilino]-2-oxo-ethyl]-2-methyl-pyrazole-3-carboxamide]
8 | 100 to 1000 nM | Cc1n[nH]c(N)c1-c1ccc(NC(=O)[C@@H](NC(=O)c2ccnn2C)C2CCCCC2)cc1 [Example 449, N-[(1S)-2-[4-(3-Amino-5-methyl-1H-pyrazol-4-yl)anilino]-1-cyclohexyl-2-oxo-ethyl]-2-methyl-pyrazole-3-carboxamide]
9 | 100 to 1000 nM | Cc1n[nH]c(N(C)C)c1-c1ccc(NC(=O)[C@@H](NC(=O)c2ccnn2C)C2CCCCC2)cc1 [Example 453, N-[(1S)-1-cyclohexyl-2-[4-[3-(dimethylamino)-5-methyl-1H-pyrazol-4-yl]anilino]-2-oxo-ethyl]-2-methyl-pyrazole-3-carboxamide]
10 | > 1000 nM | Cc1n[nH]c(C)c1-c1ccc(NC(=O)[C@@H](NC(=O)N(C)CCCO)C2CCCCC2)cc1 [Example 459, (2S)-2-cyclohexyl-N-[4-(3,5-dimethyl-1H-pyrazol-4-yl)phenyl]-2-[[3-hydroxypropyl(methyl)carbamoyl]amino]acetamide]
11 | 100 to 1000 nM | Cc1n[nH]c(C)c1-c1ccc(NC(=O)[C@@H](NC(=O)N(C)C(C)C)C2CCCCC2)cc1 [Example 469, (2S)-2-cyclohexyl-N-[4-(3,5-dimethyl-1H-pyrazol-4-yl)phenyl]-2-[[isopropyl(methyl)carbamoyl]amino]acetamide]

Further lines, the compound ahead of its results:

Row | SMILES | EC50
12 | Cc1[nH]nc(C(C)O)c1-c1ccc(NC(=O)[C@@H](NC(=O)OC(C)(C)C)C(c2ccccc2)c2ccccc2)cc1 (stereo partly drawn) [Example 434, tert-butyl N-[(1S)-1-benzhydryl-2-[4-[5-(1-hydroxyethyl)-3-methyl-1H-pyrazol-4-yl]anilino]-2-oxo-ethyl]carbamate] | 100 to 1000 nM
13 | Cc1n[nH]c(C(C)(C)O)c1-c1ccc(NC(=O)[C@@H](NC(=O)c2ccnn2C)C(c2ccccc2)c2ccccc2)cc1 [Example 435, N-[(1S)-1-benzhydryl-2-[4-[5-(1-hydroxy-1-methyl-ethyl)-3-methyl-1H-pyrazol-4-yl]anilino]-2-oxo-ethyl]-2-methyl-pyrazole-3-carboxamide] | 100 to 1000 nM
14 | Cc1[nH]nc(CO)c1-c1ccc(NC(=O)[C@@H](NC(=O)OC(C)(C)C)C(c2ccccc2)c2ccccc2)cc1 [Example 437, tert-butyl N-[(1S)-1-benzhydryl-2-[4-[5-(hydroxymethyl)-3-methyl-1H-pyrazol-4-yl]anilino]-2-oxo-ethyl]carbamate] | 100 to 1000 nM
15 | Cc1[nH]nc(CO)c1-c1ccc(NC(=O)[C@@H](NC(=O)OC(C)(C)C)C2CCCCC2)cc1 [Example 438, tert-butyl N-[(1S)-1-cyclohexyl-2-[4-[5-(hydroxymethyl)-3-methyl-1H-pyrazol-4-yl]anilino]-2-oxo-ethyl]carbamate] | 100 to 1000 nM
16 | Cc1n[nH]c(C(C)O)c1-c1ccc(NC(=O)[C@@H](NC(=O)C2(F)CC2)C2CCCCC2)cc1 (stereo partly drawn) [Example 441, N-[(1S)-1-cyclohexyl-2-[4-[5-(1-hydroxyethyl)-3-methyl-1H-pyrazol-4-yl]anilino]-2-oxo-ethyl]-1-fluoro-cyclopropanecarboxamide] | > 1000 nM
17 | Cc1n[nH]c(C(C)O)c1-c1ccc(NC(=O)[C@@H](NC(=O)c2ccnn2C)C(c2ccccc2)c2ccccc2)cc1 (stereo partly drawn) [Example 443, N-[(1S)-1-benzhydryl-2-[4-[5-(1-hydroxyethyl)-3-methyl-1H-pyrazol-4-yl]anilino]-2-oxo-ethyl]-2-methyl-pyrazole-3-carboxamide] | 100 to 1000 nM
18 | Cc1n[nH]c(CO)c1-c1ccc(NC(=O)[C@@H](NC(=O)c2ccnn2C)C2CCCCC2)cc1 [Example 445, N-[(1S)-1-cyclohexyl-2-[4-[5-(hydroxymethyl)-3-methyl-1H-pyrazol-4-yl]anilino]-2-oxo-ethyl]-2-methyl-pyrazole-3-carboxamide] | 100 to 1000 nM
19 | Cc1n[nH]c(CO)c1-c1ccc(NC(=O)[C@@H](NC(=O)c2ccnn2C)C(c2ccccc2)c2ccccc2)cc1 [Example 447, N-[(1S)-1-benzhydryl-2-[4-[5-(hydroxymethyl)-3-methyl-1H-pyrazol-4-yl]anilino]-2-oxo-ethyl]-2-methyl-pyrazole-3-carboxamide] | 100 to 1000 nM
20 | CC(C)n1nccc1C(=O)N[C@H](C(=O)Nc1ccc(-c2c(C(C)(C)O)ncn2C)cc1)C(C1CC1)C1CC1 [Example 448, N-[(1S)-1-(Dicyclopropylmethyl)-2-[4-[5-(1-hydroxy-1-methyl-ethyl)-3-methyl-imidazol-4-yl]anilino]-2-oxo-ethyl]-2-isopropyl-pyrazole-3-carboxamide] | 100 to 1000 nM
21 | Cc1n[nH]c(N)c1-c1ccc(NC(=O)[C@@H](NC(=O)c2ccnn2C)C2CCCCCC2)cc1 [Example 450, N-[(1S)-2-[4-(5-amino-3-methyl-1H-pyrazol-4-yl)anilino]-1-cycloheptyl-2-oxo-ethyl]-2-methyl-pyrazole-3-carboxamide] | 100 to 1000 nM
22 | Cc1n[nH]c(N)c1-c1ccc(NC(=O)[C@@H](NC(=O)c2ccnn2C)C(C2CCC2)C2CCC2)cc1 [Example 451, N-[(1S)-1-[[4-(3-amino-5-methyl-1H-pyrazol-4-yl)phenyl]carbamoyl]-2,2-di(cyclobutyl)ethyl]-2-methyl-pyrazole-3-carboxamide] | < 100 nM
23 | CNc1[nH]nc(C)c1-c1ccc(NC(=O)[C@@H](NC(=O)c2ccnn2C)C2CCCCC2)cc1 [Example 452, N-[(1S)-1-cyclohexyl-2-[4-[5-methyl-3-(methylamino)-1H-pyrazol-4-yl]anilino]-2-oxo-ethyl]-2-methyl-pyrazole-3-carboxamide] | > 1000 nM
24 | CCN(CC)C(=O)N[C@H](C(=O)Nc1ccc(-c2c(C)n[nH]c2C)cc1)C1CCCCC1 [Example 462, (2S)-2-cyclohexyl-2-(diethylcarbamoylamino)-N-[4-(3,5-dimethyl-1H-pyrazol-4-yl)phenyl]acetamide] | > 1000 nM
25 | Cc1n[nH]c(C)c1-c1ccc(NC(=O)[C@@H](NC(=O)N(C)CCO)C2CCCCC2)cc1 [Example 463, (2S)-2-cyclohexyl-N-[4-(3,5-dimethyl-1H-pyrazol-4-yl)phenyl]-2-[[2-hydroxyethyl(methyl)carbamoyl]amino]acetamide] | > 1000 nM
26 | Cc1n[nH]c(C)c1-c1ccc(NC(=O)[C@@H](NC(=O)N2CCCC2CCCO)C2CCCCC2)cc1 (stereo partly drawn) [Example 468, N-[(1S)-1-cyclohexyl-2-[4-(3,5-dimethyl-1H-pyrazol-4-yl)anilino]-2-oxo-ethyl]-2-(3-hydroxypropyl)-pyrrolidine-1-carboxamide] | > 1000 nM
27 | Cc1n[nH]c(C)c1-c1ccc(NC(=O)[C@@H](NC(=O)N2CCCCC2)C2CCCCC2)cc1 [Example 472, N-[(1S)-1-cyclohexyl-2-[4-(3,5-dimethyl-1H-pyrazol-4-yl)anilino]-2-oxo-ethyl]piperidine-1-carboxamide] | > 1000 nM
28 | Cc1n[nH]c(C)c1-c1ccc(NC(=O)[C@@H](NC(=O)N2CCCC2C(C)C)C2CCCCC2)cc1 (stereo partly drawn) [Example 475, N-[(1S)-1-cyclohexyl-2-[4-(3,5-dimethyl-1H-pyrazol-4-yl)anilino]-2-oxo-ethyl]-2-isopropyl-pyrrolidine-1-carboxamide] | > 1000 nM
29 | Cc1n[nH]c(C)c1-c1ccc(NC(=O)[C@@H](NC(=O)N(C)CCCCO)C2CCCCC2)cc1 [Example 476, (2S)-2-cyclohexyl-N-[4-(3,5-dimethyl-1H-pyrazol-4-yl)phenyl]-2-[[4-hydroxybutyl(methyl)carbamoyl]amino]acetamide] | 100 to 1000 nM
